Measurements from publication PMC6583902 (Biochemistry, 2013).

Test system: C. elegans Sem-5 (sex muscle five) Src-homology 3 (SH3) domain
Details: stated in words

Substance: Ac-VPPXVPPRRRY [proline]
- apparent binding constant measured by ITC: only in the millimolar range
